Laboratory results as given in patent publication US9630956B2, “Compounds useful as inhibitors of ATR kinase” (Vertex Pharmaceuticals Incorporated, priority 2010, dated 2017).
Read-outs that look alike come from different tables or passages of the source.

How the values were obtained:
[1] = biological target: full-length ATR (Homo sapiens (Human), UniProt Q13535); experiment: ATR Inhibition Assay (radioactive-phosphate incorporation); assay type: biochemical
Experimental: Compounds were screened for their ability to inhibit ATR kinase using a radioactive-phosphate incorporation assay. Assays were carried out in a mixture of 50 mM Tris/HCl (pH 7.5), 10 mM MgCl2 and 1 mM DTT. Final substrate concentrations were 10 μM [γ-33P]ATP (3 mCi 33P ATP/mmol ATP, Perkin Elmer) and 800 μM target peptide ([…]).
Assays were carried out at 25° C. in the presence of 5 nM full-length ATR. An assay stock buffer solution was prepared containing all of the reagents listed above, with the exception of ATP and the test compound of interest. 13.5 μL of the stock solution was placed in a 96 well plate followed by addition of 2 μL of DMSO stock containing serial dilutions of the test compound (typically starting from a final concentration of 15 μM with 3-fold serial dilutions) in duplicate (final DMSO concentration 7%). The plate was pre-incubated for 10 minutes at 25° C. and the reaction initiated by addition of 15 μL [γ-33P]ATP (final concentration 10 μM).
The reaction was stopped after 24 hours by the addition of 30 μL 0.1 M phosphoric acid containing 2 mM ATP. A multiscreen phosphocellulose filter 96-well plate (Millipore, Cat no. MAPHNOB50) was pretreated with 100 μL 0.2M phosphoric acid prior to the addition of 45 μL of the stopped assay mixture. The plate was washed with 5×200 μL 0.2M phosphoric acid. After drying, 100 μL Optiphase ‘SuperMix’ liquid scintillation cocktail (Perkin Elmer) was added to the well prior to scintillation counting (1450 Microbeta Liquid Scintillation Counter, Wallac).
After removing mean background values for all of the data points, Ki(app) data were calculated from non-linear regression analysis of the initial rate data using the Prism software package (GraphPad Prism version 3.0cx for Macintosh, GraphPad Software, San Diego Calif., USA).
Below is a chart showing the ATR Inhibition Ki values of compounds of the disclosure.

[2] = tested on: HCT116 colorectal cancer cells; experiment: Cisplatin Sensitization Assay (96h cell viability MTS); assay type: cell-based; conditions: concentration of compound required to reduce the IC50 of Cisplatin alone by at least 3-fold, 96h MTS
Experimental: Compounds can be screened for their ability to sensitize HCT116 colorectal cancer cells to Cisplatin using a 96h cell viability (MTS) assay. […] Compounds and Cisplatin are then both added simultaneously to the cell media in 2-fold serial dilutions from a top final concentration of 10 μM as a full matrix of concentrations in a final cell volume of 200 μl, and the cells are then incubated at 37° C. in 5% CO2. After 96h, 40 μl of […] (Promega G358a) is added to each well and the cells are incubated for 1 h at 37° C. in 5% CO2.

[3] = ATR Inhibition Ki(app), 10 μM ATP, 800 μM target peptide, 5 nM full-length ATR, 25° C.

Sequence of full-length ATR (Q13535 whole entry): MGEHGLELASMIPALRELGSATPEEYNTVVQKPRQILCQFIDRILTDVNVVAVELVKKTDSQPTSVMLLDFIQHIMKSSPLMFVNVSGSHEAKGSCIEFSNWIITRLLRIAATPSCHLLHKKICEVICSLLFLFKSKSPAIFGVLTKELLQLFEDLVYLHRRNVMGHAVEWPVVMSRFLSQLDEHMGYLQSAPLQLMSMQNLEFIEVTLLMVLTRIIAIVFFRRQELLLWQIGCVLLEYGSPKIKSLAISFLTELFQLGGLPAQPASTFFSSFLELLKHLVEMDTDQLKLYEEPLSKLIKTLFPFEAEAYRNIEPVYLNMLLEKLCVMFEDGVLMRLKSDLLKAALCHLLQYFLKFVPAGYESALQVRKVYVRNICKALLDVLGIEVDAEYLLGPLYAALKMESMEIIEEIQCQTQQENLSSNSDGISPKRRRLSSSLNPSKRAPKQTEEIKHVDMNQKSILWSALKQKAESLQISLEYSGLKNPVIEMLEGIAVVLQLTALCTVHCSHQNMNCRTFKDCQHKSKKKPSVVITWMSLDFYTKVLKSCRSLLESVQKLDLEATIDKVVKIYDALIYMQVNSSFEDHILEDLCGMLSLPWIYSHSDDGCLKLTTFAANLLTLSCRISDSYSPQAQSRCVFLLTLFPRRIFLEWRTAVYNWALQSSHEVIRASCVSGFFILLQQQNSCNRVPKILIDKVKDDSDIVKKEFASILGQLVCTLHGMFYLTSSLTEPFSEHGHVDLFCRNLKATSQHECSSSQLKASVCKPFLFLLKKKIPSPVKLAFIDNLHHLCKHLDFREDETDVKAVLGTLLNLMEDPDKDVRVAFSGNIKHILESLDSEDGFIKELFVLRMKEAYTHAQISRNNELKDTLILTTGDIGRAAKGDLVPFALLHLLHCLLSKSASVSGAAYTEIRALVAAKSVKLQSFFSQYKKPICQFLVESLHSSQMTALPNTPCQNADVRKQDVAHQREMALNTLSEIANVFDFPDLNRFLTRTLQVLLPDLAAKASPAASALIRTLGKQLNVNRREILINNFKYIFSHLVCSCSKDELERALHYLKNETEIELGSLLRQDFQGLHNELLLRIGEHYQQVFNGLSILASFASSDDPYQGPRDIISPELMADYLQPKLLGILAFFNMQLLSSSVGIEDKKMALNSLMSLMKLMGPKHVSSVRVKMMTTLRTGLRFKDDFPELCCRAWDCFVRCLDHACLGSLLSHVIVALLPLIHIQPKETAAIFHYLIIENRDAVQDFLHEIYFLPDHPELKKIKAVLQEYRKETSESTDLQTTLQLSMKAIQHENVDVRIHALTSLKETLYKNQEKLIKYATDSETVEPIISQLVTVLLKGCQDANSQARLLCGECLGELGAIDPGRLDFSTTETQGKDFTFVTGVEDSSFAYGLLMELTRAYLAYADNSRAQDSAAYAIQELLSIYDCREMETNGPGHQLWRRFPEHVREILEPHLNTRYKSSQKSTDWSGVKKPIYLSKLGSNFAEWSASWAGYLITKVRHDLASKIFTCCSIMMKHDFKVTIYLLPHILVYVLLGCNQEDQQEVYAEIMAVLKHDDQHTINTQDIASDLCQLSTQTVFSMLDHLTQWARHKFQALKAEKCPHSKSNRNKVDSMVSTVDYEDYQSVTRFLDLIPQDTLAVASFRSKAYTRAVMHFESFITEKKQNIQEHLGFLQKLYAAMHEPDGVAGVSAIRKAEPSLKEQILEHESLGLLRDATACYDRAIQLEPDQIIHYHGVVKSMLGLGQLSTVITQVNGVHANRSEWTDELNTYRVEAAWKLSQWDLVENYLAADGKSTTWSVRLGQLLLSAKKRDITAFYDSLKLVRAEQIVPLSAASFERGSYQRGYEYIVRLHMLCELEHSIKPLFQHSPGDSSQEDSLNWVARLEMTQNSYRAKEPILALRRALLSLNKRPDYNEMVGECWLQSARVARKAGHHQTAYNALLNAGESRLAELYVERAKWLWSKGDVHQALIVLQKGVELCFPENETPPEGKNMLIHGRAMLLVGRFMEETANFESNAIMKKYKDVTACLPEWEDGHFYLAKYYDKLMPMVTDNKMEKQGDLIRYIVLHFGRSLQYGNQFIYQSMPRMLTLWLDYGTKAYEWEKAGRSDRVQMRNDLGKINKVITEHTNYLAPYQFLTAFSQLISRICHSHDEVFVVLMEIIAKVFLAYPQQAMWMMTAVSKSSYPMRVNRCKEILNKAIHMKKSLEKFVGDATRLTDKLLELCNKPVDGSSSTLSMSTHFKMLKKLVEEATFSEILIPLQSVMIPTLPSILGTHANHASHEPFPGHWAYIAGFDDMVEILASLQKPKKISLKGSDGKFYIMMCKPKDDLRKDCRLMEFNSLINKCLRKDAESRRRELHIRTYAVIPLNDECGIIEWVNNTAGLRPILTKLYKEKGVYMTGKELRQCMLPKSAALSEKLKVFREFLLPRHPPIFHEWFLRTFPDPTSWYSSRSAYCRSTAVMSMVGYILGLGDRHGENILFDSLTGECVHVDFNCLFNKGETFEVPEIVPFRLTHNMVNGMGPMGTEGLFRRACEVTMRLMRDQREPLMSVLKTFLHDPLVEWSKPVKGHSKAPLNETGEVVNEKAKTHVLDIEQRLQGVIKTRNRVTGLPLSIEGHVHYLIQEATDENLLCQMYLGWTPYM

| Structure (SMILES) | Ki [1, 3] [nM] | CP3 shift [2] [µM] | Ki [1] [nM] |
| --- | --- | --- | --- |
| CNCc1ccc(-c2cc(-c3nc(-c4c[nH]c(=O)c(C5CCCC5)c4)cnc3N)on2)cc1 [Compound I-107] | ≤ 5 | 0.039 | – |
| CNCc1ccc(-c2cc(-c3nc(-c4ccc(=O)n(C5CCC(C)C5)c4)cnc3N)on2)cc1 (centres unmarked) [Compound I-22] | ≤ 5 | 0.02 | – |
| CC(N)c1cccc(-c2cc(-c3nc(-c4ccc(=O)n(C(C)C5CC5)c4)cnc3N)on2)c1 (centres unmarked) [Compound I-57, 5-(5-amino-6-(3-(3-(1-aminoethyl)phenyl)isoxazol-5-yl)pyrazin-2-yl)-1-(1-cyclopropylethyl)pyridin-2(1H)-one] | ≤ 5 | 0.02 | – |
| CCC(CC)c1cc(-c2cnc(N)c(-c3cc(-c4ccc(CNC)cc4F)no3)n2)c[nH]c1=O [Compound I-132] | ≤ 5 | 0.01 | – |
| CCC(CC)n1cc(-c2cnc(N)c(-c3cc(-c4ccc(CN[C@@H]5CCC(F)C5)cc4)no3)n2)ccc1=O (some centres unmarked) [Compound I-130] | ≤ 5 | 0.078 | – |
| CCNCc1ccc(-c2cc(-c3nc(-c4ccc(=O)n(C(C)C)c4)cnc3N)on2)cc1 [Compound I-63] | ≤ 5 | 0.156 | – |
| CNCc1ccc(-c2cc(-c3nc(-c4ccc(=O)n(CC5CC5C)c4)cnc3N)on2)cc1 (centres unmarked) [Compound I-72] | ≤ 5 | 0.078 | – |
| CNCc1ccc(-c2cc(-c3nc(-c4ccc(=O)n(CC5CC5)c4)cnc3N)on2)cc1 [Compound I-62] | ≤ 5 | 0.078 | – |
| CCC(C#N)(CC)n1cc(-c2cnc(N)c(-c3cc(-c4ccc(CNC)cc4)no3)n2)ccc1=O [Compound I-134] | ≤ 5 | 0.02 | – |
| CCC(CC)n1cc(-c2cnc(N)c(-c3cc(-c4ccc(CNC5CC5)cc4)no3)n2)ccc1=O [Compound I-93] | ≤ 5 | 0.02 | – |
| Nc1ncc(-c2ccc(=O)n(C3CCCC3)c2)nc1-c1cc(-c2ccc(CNC3CC3)cc2)no1 [Compound I-92] | ≤ 5 | 0.078 | – |
| CC[C@H](C)CCn1cc(-c2cnc(N)c(-c3cc(-c4ccc(CNC)cc4)no3)n2)ccc1=O [Compound I-77] | ≤ 5 | 0.039 | – |
| CCc1cc(-c2cnc(N)c(-c3cc(-c4ccc(CNC)cc4)no3)n2)c[nH]c1=O [Compound I-89] | ≤ 5 | 0.312 | – |
| CNCc1ccc(-c2cc(-c3nc(-c4ccc(=O)n(C(C)C5CC5)c4)cnc3N)on2)c(F)c1 (centres unmarked) [Compound I-54] | ≤ 5 | 0.039 | – |
| CNCc1ccc(-c2cc(-c3nc(-c4c[nH]c(=O)c(-c5ccccc5)c4)cnc3N)on2)cc1 [Compound I-123] | ≤ 5 | 0.078 | – |
| CNCc1ccc(-c2cc(-c3nc(-c4ccc(=O)n(CC5(C)CC5)c4)cnc3N)on2)cc1 [Compound I-68] | ≤ 5 | 0.039 | – |
| CNCc1ccc(-c2cc(-c3nc(-c4c[nH]c(=O)c(Cl)c4)cnc3N)on2)cc1 [Compound I-90] | ≤ 5 | 0.625 | – |
| CC[C@H](C)Cn1cc(-c2cnc(N)c(-c3cc(-c4ccc(CNC)cc4)no3)n2)ccc1=O [Compound I-97] | ≤ 5 | 0.078 | – |
| CCC(CC)n1cc(-c2cnc(N)c(-c3cc(-c4ccc(CNC)cc4)no3)n2)ccc1=O [Compound I-83] | ≤ 5 | 0.02 | – |
| CNCc1ccc(-c2cc(-c3nc(-c4ccc(=O)n(CC5(CO)CC5)c4)cnc3N)on2)cc1 [Compound I-80] | ≤ 5 | 0.078 | – |

| Structure (SMILES) | Ki [1, 3] [nM] | CP3 shift [2] [µM] | Ki [1] [nM] |
| --- | --- | --- | --- |
| CCC(CC)n1cc(-c2cnc(N)c(-c3cc(-c4cccc(C(C)N)c4)no3)n2)ccc1=O (centres unmarked) [Compound I-94] | ≤ 5 | 0.007 | – |
| CNCc1ccc(-c2cc(-c3nc(-c4ccc(=O)n(CC5CCCCO5)c4)cnc3N)on2)cc1 (centres unmarked) [Compound I-87] | ≤ 5 | 0.078 | – |
| CNCc1ccc(-c2cc(-c3nc(-c4ccc(=O)n(CCC#N)c4)cnc3N)on2)cc1 [Compound I-73] | ≤ 5 | 0.156 | – |
| CNCc1ccc(-c2cc(-c3nc(-c4ccc(=O)n(C5(C#N)CCCC5)c4)cnc3N)on2)cc1 [Compound I-143] | ≤ 5 | 0.01 | – |
| CNCc1ccc(-c2cc(-c3nc(-c4ccc(=O)n(C(C)(C)C#N)c4)cnc3N)on2)cc1 [Compound I-125] | ≤ 5 | 0.015 | – |
| CNCc1ccc(-c2nnc(-c3nc(-c4ccc(=O)n(C(C)C5CC5)c4)cnc3N)o2)c(OC)c1 (centres unmarked) [Compound I-37] | ≤ 5 | 0.078 | – |
| CCn1cc(-c2cnc(N)c(-c3cc(-c4ccc(CNC)cc4)no3)n2)ccc1=O [Compound I-81] | ≤ 5 | 0.156 | – |
| CNCc1ccc(-c2cc(-c3nc(-c4ccc(=O)n(CCC5CCCC5)c4)cnc3N)on2)cc1 [Compound I-122] | ≤ 5 | 0.078 | – |
| CCC(CC)n1cc(-c2cnc(N)c(-c3cc(-c4ccc(CNC5CC5)cc4F)no3)n2)ccc1=O [Compound I-128] | ≤ 5 | 0.078 | – |
| CC(C)NCc1ccc(-c2cc(-c3nc(-c4ccc(=O)n(C(C)C)c4)cnc3N)on2)cc1 [Compound I-60] | ≤ 5 | 0.312 | – |
| CCC(C#N)(CC)n1cc(-c2cnc(N)c(-c3cc(-c4cccc([C@@H](C)N)c4)no3)n2)ccc1=O [Compound I-138] | ≤ 5 | 0.01 | – |
| CC(C)(C)NCc1ccc(-c2cc(-c3nc(-c4ccc(=O)n(C5CCCC5)c4)cnc3N)on2)cc1 [Compound I-50] | ≤ 5 | 0.312 | – |
| CNCc1ccc(-c2cc(-c3nc(-c4ccc(=O)n(CCC5CC5)c4)cnc3N)on2)cc1 [Compound I-96] | ≤ 5 | 0.078 | – |
| CNCc1cccc(-c2cc(-c3nc(-c4ccc(=O)n(C(C)C)c4)cnc3N)on2)c1 [Compound I-49, 5-(5-amino-6-(3-(3-((methylamino)methyl)phenyl)isoxazol-5-yl)pyrazin-2-yl)-1-isopropylpyridin-2(1H)-one] | – | 0.625 | 5 to 50 |
| CC1CCC(n2cc(-c3cnc(N)c(-c4cc(-c5cccc(C(C)N)c5)no4)n3)ccc2=O)C1 (centres unmarked) [Compound I-124] | ≤ 5 | 0.039 | – |
| CCC(CC)n1cc(-c2cnc(N)c(-c3cc(-c4ccc(CNC)cc4F)no3)n2)ccc1=O [Compound I-129] | ≤ 5 | 0.02 | – |
| CNCc1ccc(-c2cc(-c3nc(-c4ccc(=O)n(C(C)C#N)c4)cnc3N)on2)cc1 (centres unmarked) [Compound I-15] | ≤ 5 | 0.039 | – |
| CCC(N)c1cccc(-c2cc(-c3nc(-c4ccc(=O)n(C(CC)CC)c4)cnc3N)on2)c1 (centres unmarked) [Compound I-133] | ≤ 5 | 0.039 | – |
| CCC(CC)n1cc(-c2cnc(N)c(-c3cc(-c4ccc(CNC5(C)CC5)cc4)no3)n2)ccc1=O [Compound I-140] | ≤ 5 | 0.156 | – |
| CCCC(CC)c1cc(-c2cnc(N)c(-c3cc(-c4ccc(CNC)cc4)no3)n2)c[nH]c1=O (centres unmarked) [Compound I-116] | ≤ 5 | 0.02 | – |
